{
  "source": "patent US20210353769A1",
  "about": "“SURFACE MODIFIED EXTRACELLULAR VESICLES” (City University of Hong Kong, priority 2018, published 2021)",
  "system": "H358 cells",
  "assay": "Uptake of Calcein AM-labelled RBCEVs by H358 cells (FACS)",
  "format": "cell-based, human",
  "settings": "5-20 μg/ml Filipin",
  "description": "To test the uptake of RBCEVs by the cells, we labelled RBCEVs with Calcein AM, a fluorescent dye, and sortagged the labelled RBCEVs with biotinylated EGFR-targeting peptide as described above. The labelled and sortagged RBCEVs were washed extensively with SEC and 2 rounds of centrifugation. We incubated H358 cells with a suboptimal dose of the labelled RBCEVs and analysed Calcein AM fluorescence in the cells after 2 hours of incubation (FIG. 8C). The fluorescent background was determined based on the supernatant of the last wash (flowthrough) of the labelled RBCEVs.\nIn a shorter uptake assay, H358, HCC827, MOLM13 and THP1 cells were incubated with Calcein AM-labelled RBCEVs for 1 to 2 hours at 37° C. To identify the route of EV uptake, we added 25-100 μM EIPA, 5-20 μg/ml Filipin, 0.25-1 μM Wortmannin.\nFlow cytometry of latex beads or cells in FACS buffer was performed using a CytoFLEX-S cytometer (Beckman Coulter) and analyzed using Flowjo V10 (Flowjo, USA). The beads or cells were initially gated based on FSC-A and SSC-A to exclude the debris and dead cells (low FSC-A). The cells were further gated based on FSC-width vs. FSC-height, to exclude doublets and aggregates.",
  "data": [
    {"smiles": "CCCCC[C@@H](O)[C@H]1C(=O)O[C@H](C)[C@@H](O)/C=C/C=C/C=C/C=C/C=C(\\C)[C@@H](O)C[C@H](O)C[C@H](O)C[C@H](O)C[C@H](O)C[C@H](O)C[C@@H]1O", "note": "[Filipin]", "values": [
      {"measurement": "effect of endocytosis inhibitor on uptake of ET-ligated RBCEVs", "value": "reduce the uptake"}
    ]}
  ]
}
